The text below walks through data of patent US11136311B2, “Heteroaromatic derivatives as NIK inhibitors” (Janssen Pharmaceutica NV, priority 2016, dated 2021).

One assay relates to KMS12-BM cells. The assay is described as follows: Antiproliferative activity on KMS12-BM (NIK WT) multiple myeloma cells (CellTiter-Glo). The format is cell-based, human. As to conditions: KMS12-BM (NIK WT) cells, 96 hr, averaged values, read-out: KMS-12 Proliferation inhibition (IC50 (nM)). The essentials: (§1)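 Suspension myeloma cells in RPMI 1640 with 10% FCS, plated at 15000 (JJN-3) or 20000 (KMS12-BM) cells/well, were treated 96 hr with 9-point 1:3 compound dilutions at 0.3% DMSO. CellTiter-Glo luminescence, minus a time-zero blank, was expressed as % of untreated control growth.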

Assay [1] relates to P-IKKα levels in L363 cells. In words: Effect of compounds on P-IKKα levels in L363 (NIK translocated multiple myeloma) cells. Particulars: averaged values, read-out: Inhibition of pIKKα_L-363 (IC50 (nM)). Format: cell-based, human. The method, then:
Effect of compounds on P-IKKα levels in L363 (NIK translocated multiple myeloma) cells
All compounds tested were dissolved in DMSO and further dilutions were made in culture medium. Final DMSO concentration was 1% (v/v) in cell assays. The human L363 cells (ATCC) were cultured in RPMI 1640 medium supplemented with GlutaMax and 10% fetal calf serum (PAA). Cells were routinely maintained at densities of 0.2×10^6 cells per ml-1×10^6 cells per ml at 37° C. in a humidified 5% CO2 atmosphere. Cells were passaged twice a week splitting back to obtain the low density. Cells were seeded in 96 well plates (Nunc 167008) at 2×10^6 per ml media in a volume of 75 μl per well plus 25 μl 1 μg/ml recombinant human B-cell activating factor (BAFF/BLyS/TNFSF13B). Seeded cells were incubated at 37° C. in a humidified 5% CO2 atmosphere for 24 hr. Drugs and/or solvents were added (20 μl) to a final volume of 120 μl. Following 2 hr treatment plates were removed from the incubator and cell lysis was achieved by the addition of 30 μl 5× lysis buffer followed by shaking on a plate shaker at 4° C. for 10 min. At the end of this incubation lysed cells were centrifuged at 800×g for 20 min at 4° C. and the lysate was assessed for P-IKKα levels by sandwich immuno-assay carried out in anti-rabbit antibody coated Mesoscale plates. Within an experiment, the results for each treatment were the mean of 2 replicate wells. For initial screening purposes, compounds were tested using an 8 point dilution curve (serial 1:3 dilutions). For each experiment, controls (containing MG132 and BAFF but no test drug) and a blank incubation (containing MG132 and BAFF and 10 μM ADS125117, a test concentration known to give full inhibition) were run in parallel. The blank incubation value was subtracted from all control and sample values. To determine the IC50 a sigmoidal curve was fitted to the plot of % inhibition of control P-IKKα levels versus Log10 compound concentration.

In assay [2] the target is recombinant human NF-kappaB-inducing kinase (NIK/MAP3K14) (Homo sapiens (Human), UniProt Q99558). The assay is described as follows: Inhibition of auto-phosphorylation of recombinant human NIK/MAP3K14 activity (AlphaScreen). As to conditions: averaged values over all measurements on all batches. Format: biochemical. The method in brief: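 GST-tagged NIK at 0.2 nM autophosphorylated for 1 h at 25° C with 25 microM ATP in Tris pH 7.5, MgCl2, 1% DMSO. Phospho-IKK Ser176/180 antibody with AlphaScreen beads detected product. IC50 came from sigmoidal fits of blank-corrected % inhibition.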

In another assay the test system is JJN-3 cells. The assay is described as follows: Antiproliferative activity on JJN-3 (NIK translocated) multiple myeloma cells (CellTiter-Glo). Format: cell-based, human. Particulars: JJN-3 (NIK translocated) cells, 96 hr, averaged values, read-out: JJN-3 Proliferation inhibition (IC50 (nM)). The method in brief: as §1
Where [3] appears, read: Homo sapiens, L-363, L363 cells.

Like-named read-outs stand apart in the source and are kept apart here.

Chain of recombinant human NF-kappaB-inducing kinase (NIK/MAP3K14) (Q99558 whole entry): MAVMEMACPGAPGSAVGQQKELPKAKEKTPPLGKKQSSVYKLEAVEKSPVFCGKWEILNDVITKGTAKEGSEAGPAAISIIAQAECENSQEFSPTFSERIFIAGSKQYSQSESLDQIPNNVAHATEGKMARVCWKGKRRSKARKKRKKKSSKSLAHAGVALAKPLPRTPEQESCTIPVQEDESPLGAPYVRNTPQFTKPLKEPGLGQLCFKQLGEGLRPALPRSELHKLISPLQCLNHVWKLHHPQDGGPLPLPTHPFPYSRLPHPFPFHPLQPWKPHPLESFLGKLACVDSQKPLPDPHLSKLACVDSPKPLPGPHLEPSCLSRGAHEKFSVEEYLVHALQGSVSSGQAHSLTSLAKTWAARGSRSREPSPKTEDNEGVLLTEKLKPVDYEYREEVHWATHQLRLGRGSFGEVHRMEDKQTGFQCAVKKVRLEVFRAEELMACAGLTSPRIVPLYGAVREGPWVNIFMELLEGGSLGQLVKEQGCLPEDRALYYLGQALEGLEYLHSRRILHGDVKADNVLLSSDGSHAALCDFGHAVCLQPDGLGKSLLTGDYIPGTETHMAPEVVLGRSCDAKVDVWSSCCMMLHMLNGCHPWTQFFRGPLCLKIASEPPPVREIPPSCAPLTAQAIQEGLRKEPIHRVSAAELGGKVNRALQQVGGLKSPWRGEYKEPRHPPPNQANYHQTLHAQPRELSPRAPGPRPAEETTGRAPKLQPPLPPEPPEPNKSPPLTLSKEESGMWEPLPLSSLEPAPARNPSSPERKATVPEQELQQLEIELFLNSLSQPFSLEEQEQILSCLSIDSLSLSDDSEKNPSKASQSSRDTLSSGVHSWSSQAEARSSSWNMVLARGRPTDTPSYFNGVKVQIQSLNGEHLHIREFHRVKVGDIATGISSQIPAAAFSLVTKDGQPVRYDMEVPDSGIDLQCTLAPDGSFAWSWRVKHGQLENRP

As for `Cc1cc(Nc2nccc(-c3cc(C#N)c4c(c3)[C@@](C)(CO)CN4)n2)n(CC2CCOC2)n1` (single isomer, unassigned) [Compound 81], the IC50 with KMS12-BM cells is 851 nM; in assay [1] (setting [3]) it was 11 nM; in assay [2], 4.3 nM; in the assay with JJN-3 cells (Homo sapiens, JJN-3, 96 h), 195 nM.
For `Cc1cc(Nc2nccc(-c3cc(C#N)c4c(c3)[C@@](C)(CO)CN4)n2)n(CC2CCCN(C)C2)n1` (single isomer, unassigned) [Compound 141], the IC50 was above 10000 nM with KMS12-BM cells, 813 nM in assay [1] (L363 cells), 42 nM in assay [2] and 79 nM in the assay on JJN-3 cells.
In the case of `CN(C(=O)Cn1nc(Cl)cc1Nc1nccc(-c2cc(C#N)c3c(c2)[C@@](C)(CO)CN3)n1)C1CC1` [Compound 118], the IC50 with KMS12-BM cells (Homo sapiens, KMS-12-BM, 96 h) was above 10000 nM; in assay [1] (setting [3]), 33 nM; in assay [2], 4 nM; in the assay with JJN-3 cells (Homo sapiens, JJN-3, 96 h) it was 447 nM.
On the same counts, the results for `COCCCn1nc(C)cc1Nc1nccc(-c2cc(C#N)c3c(c2)[C@@](C)(COC(C)=O)CN3)n1` [Compound 177] are above 10000 nM, 28 nM, 10 nM and 81 nM.
Consider `Cc1cc(Nc2nccc(-c3cc(C#N)c4c(c3)[C@@](C)(CO)CN4)n2)n(CC2COCCO2)n1` (single isomer, unassigned) [Compound 84], for which the IC50 is above 10000 nM in the assay on KMS12-BM cells; 11 nM in assay [1] (L363 cells); 11 nM in assay [2]; 437 nM with JJN-3 cells (Homo sapiens, JJN-3, 96 h).
With `CC(C)c1nn(CC(F)F)cc1Nc1nccc(-c2cc(C#N)c3c(c2)[C@@](C)(CO)CN3)n1` [Compound 204], the IC50 with KMS12-BM cells (Homo sapiens, KMS-12-BM, 96 h) is around 6030 nM; in assay [1] (setting [3]) it was 2 nM; in assay [2], 1.1 nM; in the assay with JJN-3 cells (Homo sapiens, JJN-3, 96 h), 16 nM.
On the same counts, the results for `CNC(=O)c1cc(Nc2nccc(-c3cc(C#N)c4c(c3)[C@@](C)(CO)CN4)n2)n(C2CCCC2)n1` [Compound 196] are 5250 nM, 36 nM, 8.3 nM and 554 nM.
Regarding `COCCc1c(Nc2nccc(-c3cc(C#N)c4c(c3)[C@@](C)(CO)CN4)n2)cnn1CC(F)F` [Compound 181], the IC50 was around 9120 nM in the assay on KMS12-BM cells (Homo sapiens, KMS-12-BM, 96 h); 11 nM in assay [1] (setting [3]); 3.3 nM in assay [2]; 87 nM in the assay with JJN-3 cells (Homo sapiens, JJN-3, 96 h).
For `CC(C)n1nc(Nc2nccc(-c3cc(C#N)c4c(c3)[C@@](C)(CO)CN4)n2)cc1C(=O)NC1CC1` [Compound 164], the IC50 with KMS12-BM cells (Homo sapiens, KMS-12-BM, 96 h) was 4680 nM; in assay [1] (setting [3]), below 0.66 nM; in assay [2], 2.6 nM; in the assay with JJN-3 cells (Homo sapiens, JJN-3, 96 h), 132 nM.
On the same counts, the results for `Cc1c(Nc2nccc(-c3cc(C#N)c4c(c3)[C@@](C)(CO)CN4)n2)cnn1C1CCN(C)CC1` [Compound 123] are around 447 nM, 20 nM, 1.6 nM and 195 nM.
For `Cc1cc(Nc2nccc(-c3cc(C#N)c4c(c3)[C@@](C)(CO)CN4)n2)n(CC(=O)O)n1` [Compound 135], the IC50 in the assay with KMS12-BM cells (Homo sapiens, KMS-12-BM, 96 h) was above 10000 nM; in assay [1] (setting [3]), 229 nM; in assay [2] it was 5.1 nM; in the assay with JJN-3 cells (Homo sapiens, JJN-3, 96 h) it was above 10000 nM.
Consider `COCCc1nn(CC(F)F)cc1Nc1nccc(-c2cc(C#N)c3c(c2)[C@@](C)(CO)CN3)n1` [Compound 180], for which the IC50 with KMS12-BM cells (Homo sapiens, KMS-12-BM, 96 h) was around 6720 nM; in assay [1] (setting [3]), 2 nM; in assay [2], 4.7 nM; in the assay with JJN-3 cells (Homo sapiens, JJN-3, 96 h), 46 nM.
For `Cn1ncc(Nc2nccc(-c3cc(C#N)c4c(c3)[C@@](C)(CO)CN4)n2)c1OC1CC1` [Compound 192], the IC50 is above 10000 nM in the assay with KMS12-BM cells (Homo sapiens, KMS-12-BM, 96 h); 6 nM in assay [1] (setting [3]); 8.1 nM in assay [2]; 91 nM in the assay on JJN-3 cells (Homo sapiens, JJN-3, 96 h).
For `Cc1cc(Nc2nccc(-c3cc(C#N)c4c(c3)[C@@](C)(CO)CN4)n2)nn1CC1CCOCC1` [Compound 60], the IC50 in the assay on KMS12-BM cells (Homo sapiens, KMS-12-BM, 96 h) is around 501 nM; in assay [1] (setting [3]) it was 5 nM; in assay [2], 2 nM; in the assay on JJN-3 cells (Homo sapiens, JJN-3, 96 h), 72 nM.
